Assay results taken from patent US20260001928A1 (CORTERIA PHARMACEUTICALS, priority 2022, published 2026).
*1 amine or outer side, *2 acyl side, *3 side chain or, on linkers, in order; H or OH if unused. Where a SMILES comes first, the peptide text is derived from it. Side-chain parts run from the residue outwards. [ ]: non-standard residue; d: D form. The star is where a group is joined. C20 diacid = O=C(O)CCCCCCCCCCCCCCCCCCC(=O)*; C18 diacid = O=C(O)CCCCCCCCCCCCCCCCC(=O)*; C16 diacid = O=C(O)CCCCCCCCCCCCCCC(=O)*; γGlu = O=C(O)[C@H](CCC(=O)[*:2])N[*:1]; NMeI = CC[C@H](C)[C@H](NC)C(=O)O; Pentanoyl = CCCCC(=O)*; AEEA = NCCOCCOCC(=O)O; Ac3c = NC1(C(=O)O)CC1; Aib = CC(C)(N)C(=O)O

Legend:
human CRF2a receptor = target: T1, human CRF2a receptor (Homo sapiens, UniProt Q13324); assay: Activity at human CRF2a receptor, cAMP functional assay in TeloHEAC cells; format: cell-based; details: TeloHEAC cells stably expressing human CRF2a receptor, relative to urocortin 2 (100 nM = 100%)
T1 construct: expressed in transfected cells; host or cells: TeloHEAC cells
T1 sequence (Q13324 1-411): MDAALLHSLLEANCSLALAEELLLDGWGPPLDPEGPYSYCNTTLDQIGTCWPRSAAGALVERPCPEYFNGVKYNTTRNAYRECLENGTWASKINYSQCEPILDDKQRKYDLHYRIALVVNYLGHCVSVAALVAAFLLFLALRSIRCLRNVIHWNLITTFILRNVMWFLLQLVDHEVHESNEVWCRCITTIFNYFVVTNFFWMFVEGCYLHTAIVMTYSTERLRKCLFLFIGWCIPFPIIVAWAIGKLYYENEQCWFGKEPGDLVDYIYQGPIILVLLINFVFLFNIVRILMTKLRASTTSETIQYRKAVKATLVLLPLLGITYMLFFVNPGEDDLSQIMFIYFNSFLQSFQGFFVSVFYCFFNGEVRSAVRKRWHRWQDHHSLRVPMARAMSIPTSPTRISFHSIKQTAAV
How it was run: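 cAMP accumulation was measured by HTRF 665/620 nm ratio after 30 min at 37° C compound exposure (16 twofold dilutions) of CRF2a-expressing TeloHEAC cells, 10000/well, in HEPES-buffered HBSS plus IBMX. Activity was normalised to urocortin 2 at 100 nM (100%), and EC50 was the concentration giving half-maximal activation.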

CFR1R receptor = target: T2, CFR1R receptor (Homo sapiens, UniProt P34998); assay: Activity at anti-target CFR1R receptor, cAMP assay in CRF1R-overexpression CHO-K1 cells; format: cell-based; details: 100% = Sauvagine at 100 nM; for EC50: cAMP
T2 construct: host or cells: CHO-K1 (clone 2)
T2 sequence (P34998 24-415): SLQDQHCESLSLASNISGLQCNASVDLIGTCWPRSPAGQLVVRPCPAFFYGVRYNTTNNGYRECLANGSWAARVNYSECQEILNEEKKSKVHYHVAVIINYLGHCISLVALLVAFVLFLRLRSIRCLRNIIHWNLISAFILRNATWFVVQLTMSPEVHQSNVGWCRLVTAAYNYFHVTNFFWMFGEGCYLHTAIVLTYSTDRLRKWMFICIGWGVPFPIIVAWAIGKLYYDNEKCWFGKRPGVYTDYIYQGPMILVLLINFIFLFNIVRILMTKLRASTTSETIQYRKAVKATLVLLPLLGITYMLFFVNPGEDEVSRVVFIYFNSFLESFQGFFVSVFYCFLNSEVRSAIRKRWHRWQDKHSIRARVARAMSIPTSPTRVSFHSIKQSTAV
How it was run: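 The method mirrors that used with TeloHAEC cells. Here, thawed clone 2 cells seeded at 4000 cells/well are tested, and 100 nM Sauvagine sets the top of the activation scale.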

[1] = In vitro subcutaneous tissue supernatant (SCts) stability and metabolite identification, rat; format: in vitro ADME; set-up: remaining at 2 h: dose or concentration left out as unconfirmed; details: male, Sprague Dawley; rat subcutaneous tissue supernatant (SCts), 37° C, 2 h
Method: In vitro metabolic stability in subcutaneous tissue supernatant (SCts) was studied in male Sprague Dawley rats. Test compounds were incubated […] for 2 hours at 37° C.
Software aided in vitro metabolite identification on SCts stability samples was performed using either Metabolite Pilot (Sciex) or Biopharma Finder (Thermo). In addition, metabolite identification using Metabolite Pilot was performed on plasma samples of Comp Y following SC administration to rat at 1 mg/kg.

[2] = Chemical stability in buffer (pH 7.4 / pH 4.5), % purity loss; format: physicochemical; details: 40° C. vs 5° C., 14 or 28 days; for Buffer stability pH 4.5 % purity loss: 100 mM acetate buffer pH 4.5; for Buffer stability pH 7.4 % purity loss: 100 mM phosphate buffer pH 7.4
How it was run: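 LC-UV gave % loss after 14 or 28 days of storage at 5 °C or 40 °C. Samples were diluted supernatants from compound incubated 1 h at room temperature at 10 mg/mL target, in 100 mM acetate pH 4.5 or 100 mM phosphate pH 7.4.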

| EC50 (human CRF2a receptor) | Emax (% I) (CFR1R receptor) | EC50 (CFR1R receptor) | remaining at 2 h [1] | Buffer stability pH 4.5 % purity loss [2] | Buffer stability pH 7.4 % purity loss [2] | SMILES |
| --- | --- | --- | --- | --- | --- | --- |
| 5.76 nM | 6 % I | > 250 nM | 77% |  |  | CCCCC(=O)N[C@H](C(=O)N[C@@H](CC(C)C)C(=O)N[C@@H](CO)C(=O)N[C@@H](CC(C)C)C(=O)N[C@@H](CC(=O)O)C(=O)N[C@@H](C(=O)N1CCC[C@H]1C(=O)N[C@H](C(=O)N[C@@H](CCCCN)C(=O)N[C@@H](CC(C)C)C(=O)N[C@@H](CCCCNC(=O)COCCOCCNC(=O)COCCOCCNC(=O)CC[C@H](NC(=O)CCCCCCCCCCCCCCCCC(=O)O)C(=O)O)C(=O)N[C@@H](CCCCN)C(=O)N[C@H](C(=O)N[C@@H](CC(C)C)C(=O)N[C@@H](CC(C)C)C(=O)N[C@@H](CCC(=O)O)C(=O)N[C@@H](CCC(N)=O)C(=O)N[C@@H](CCC(=O)O)C(=O)N[C@@H](CCCCN)C(=O)N[C@@H](CCC(N)=O)C(=O)N[C@@H](CCCCN)C(=O)N[C@@H](CCCCN)C(=O)N[C@@H](CCC(N)=O)C(=O)N[C@@H](CCCNC(=N)N)C(=O)N[C@@H](CCC(=O)O)C(=O)N[C@@H](CCC(N)=O)C(=O)N[C@@H](C)C(=O)N[C@@H](CCC(=O)O)C(=O)N[C@H](C(=O)N[C@@H](CC(N)=O)C(=O)N[C@H](C(=O)N[C@@H](CCC(N)=O)C(=O)N[C@H](C(=O)N[C@@H](CC(C)C)C(=O)N[C@@H](C)C(=O)N[C@@H](CCC(N)=O)C(=O)N[C@H](C(N)=O)C(C)C)[C@@H](C)CC)C(C)C)[C@@H](C)O)[C@@H](C)CC)[C@@H](C)CC)C(C)C)C(C)C [compound 121] (Pentanoyl-VLSLD[dV]PIKLK([AEEA-AEEA-γGlu-C18 diacid])KILLEQEKQKKQREQAETNVQILAQV-NH2) |
| 0.16 nM | 5 % I | > 250 nM | 78% | 0.0% | 24.3% | CC[C@H](C)[C@H](NC(C)=O)C(=O)N[C@H](C(=O)N[C@@H](CC(C)C)C(=O)N[C@@H](CO)C(=O)N[C@@H](CC(C)C)C(=O)N[C@@H](CC(=O)O)C(=O)N[C@@H](C(=O)N1CCC[C@H]1C(=O)N[C@H](C(=O)N[C@@H](CCCCN)C(=O)N[C@@H](CC(C)C)C(=O)N[C@@H](CCCCNC(=O)CC[C@H](NC(=O)CCCCCCCCCCCCCCCCC(=O)O)C(=O)O)C(=O)N[C@@H](CCCCN)C(=O)N[C@H](C(=O)N[C@@H](CC(C)C)C(=O)N[C@@H](CC(C)C)C(=O)N[C@@H](CCC(=O)O)C(=O)N[C@@H](CCC(N)=O)C(=O)N[C@@H](CCC(=O)O)C(=O)N[C@@H](CCCCN)C(=O)N[C@@H](CCC(N)=O)C(=O)N[C@@H](CCCCN)C(=O)N[C@@H](CCCCN)C(=O)N[C@@H](CCC(N)=O)C(=O)N[C@@H](CCCNC(=N)N)C(=O)N[C@@H](CCC(=O)O)C(=O)N[C@@H](CCC(N)=O)C(=O)N[C@@H](C)C(=O)N[C@@H](CCC(=O)O)C(=O)N[C@H](C(=O)N[C@@H](CC(N)=O)C(=O)NC1(C(=O)N[C@@H](CCC(N)=O)C(=O)N[C@H](C(=O)N[C@@H](CC(C)C)C(=O)N[C@@H](C)C(=O)N[C@@H](CCC(N)=O)C(=O)N[C@H](C(N)=O)C(C)C)[C@@H](C)CC)CC1)[C@@H](C)O)[C@@H](C)CC)[C@@H](C)CC)C(C)C)C(C)C [compound 136] (Ac-IVLSLD[dV]PIKLK([γGlu-C18 diacid])KILLEQEKQKKQREQAETN[Ac3c]QILAQV-NH2) |
| 0.32 nM | 3 % I | > 250 nM | 59% |  | 0.6/Not Tested % | CC[C@H](C)[C@H](NC(C)=O)C(=O)N[C@H](C(=O)N[C@@H](CC(C)C)C(=O)N[C@@H](CO)C(=O)N[C@@H](CC(C)C)C(=O)N[C@@H](CC(=O)O)C(=O)N[C@@H](C(=O)N1CCC[C@H]1C(=O)N[C@H](C(=O)N[C@@H](CCCCN)C(=O)N[C@@H](CC(C)C)C(=O)N[C@@H](CCCCNC(=O)CC[C@H](NC(=O)CCCCCCCCCCCCCCC(=O)O)C(=O)O)C(=O)N[C@@H](CCCCN)C(=O)N[C@H](C(=O)N[C@@H](CC(C)C)C(=O)N[C@@H](CC(C)C)C(=O)N[C@@H](CCC(=O)O)C(=O)N[C@@H](CCC(N)=O)C(=O)N[C@@H](CCC(=O)O)C(=O)N[C@@H](CCCCN)C(=O)N[C@@H](CCC(N)=O)C(=O)N[C@@H](CCCCN)C(=O)N[C@@H](C)C(=O)N[C@@H](CCC(N)=O)C(=O)N[C@@H](CCCNC(=N)N)C(=O)N[C@@H](CCC(=O)O)C(=O)N[C@@H](CCC(N)=O)C(=O)N[C@@H](C)C(=O)N[C@@H](CCC(=O)O)C(=O)N[C@H](C(=O)N[C@@H](CC(N)=O)C(=O)NC(C)(C)C(=O)N[C@@H](CCC(N)=O)C(=O)N[C@H](C(=O)N[C@@H](CC(C)C)C(=O)N[C@@H](C)C(=O)N[C@@H](CCC(N)=O)C(=O)N[C@H](C(N)=O)C(C)C)[C@@H](C)CC)[C@@H](C)O)[C@@H](C)CC)[C@@H](C)CC)C(C)C)C(C)C [compound 161] (Ac-IVLSLD[dV]PIKLK([γGlu-C16 diacid])KILLEQEKQKAQREQAETN[Aib]QILAQV-NH2) |
| 0.12 nM | 34 % I | > 250 nM | 72% | 0.0/0.0 ^ % | 0.0/0.0 ^ % | CC[C@H](C)[C@H](NC)C(=O)N[C@H](C(=O)N[C@@H](CC(C)C)C(=O)N[C@@H](CO)C(=O)N[C@@H](CC(C)C)C(=O)N[C@@H](CC(=O)O)C(=O)N[C@@H](C(=O)N1CCC[C@H]1C(=O)N[C@H](C(=O)N[C@@H](CCCCN)C(=O)N[C@@H](CC(C)C)C(=O)N[C@@H](CCCCNC(=O)CC[C@H](NC(=O)CCCCCCCCCCCCCCCCCCC(=O)O)C(=O)O)C(=O)N[C@@H](CCCCN)C(=O)N[C@H](C(=O)N[C@@H](CC(C)C)C(=O)N[C@@H](CC(C)C)C(=O)N[C@@H](CCC(=O)O)C(=O)N[C@@H](CCC(N)=O)C(=O)N[C@@H](CCC(=O)O)C(=O)N[C@@H](CCCCN)C(=O)N[C@@H](CCC(N)=O)C(=O)N[C@@H](CCCCN)C(=O)N[C@@H](CCCCN)C(=O)N[C@@H](CCC(N)=O)C(=O)N[C@@H](CCCNC(=N)N)C(=O)N[C@@H](CCC(=O)O)C(=O)N[C@@H](CCC(N)=O)C(=O)N[C@@H](C)C(=O)N[C@@H](CCC(=O)O)C(=O)N[C@H](C(=O)N[C@@H](CC(N)=O)C(=O)NC(C)(C)C(=O)N[C@@H](CCC(N)=O)C(=O)N[C@H](C(=O)N[C@@H](CC(C)C)C(=O)N[C@@H](C)C(=O)N[C@@H](CCC(N)=O)C(=O)N[C@H](C(N)=O)C(C)C)[C@@H](C)CC)[C@@H](C)O)[C@@H](C)CC)[C@@H](C)CC)C(C)C)C(C)C [compound 214] (H-[NMeI]VLSLD[dV]PIKLK([γGlu-C20 diacid])KILLEQEKQKKQREQAETN[Aib]QILAQV-NH2) |
